Consider 22 compounds from patent US12496297B1, “Compositions of autophagy modulating agents and uses thereof” (Washington University, priority 2020, dated 2025).

Test [1] deals with α1-antitrypsin Z variant (ATZ). Description: Steady state levels of ATZ in HTO/Z cell line (immunoblot); activity of G2 analogs. It is filed as cell-based, human. Conditions: for Activity: G2 and G2 analogs, positive activity if shown to have any activity, not quantified; for IC50: TABLE 1, assay not given. As for the experimental part: For experiments with G2 analogs, Tet-off inducible cell lines were cultured in absence of doxycycline for at least 12 days to ensure expression of […] or its variants. The cells were then sub-cultured into separate monolayers in fresh complete growth medium and incubated for 48 hours in the absence or presence of G2 analog. […] All compounds available commercially were purchased except for G2-22, which was synthesized with routine chemistry.
Cells were lysed in NP40 buffer and then separated into insoluble and soluble fractions according to a previously established technique. Samples were subjected to immunoblot analysis for AT and GAPDH. For immmunoblot analysis to detect AT or GAPDH, cells were lysed in 50 mM Tris-HCl, 150 mM NaCl, 1% NP-40, pH 8.0. Protein concentrations were determined by BCA protein assay (Pierce Biotechnology, Rockford, IL). […] The membranes were blocked in 5% milk and then incubated overnight at 4° C. with primary antibody for AT (1:1000, Diasorin), LC3 (1:2000, Sigma), p62 (1:1000, Cell signaling, Danvers, MA), ATG5 (1:1000, Cell signaling), mTOR substrate sampler (1:1000 for all antibodies, Cell signaling). Donkey anti-goat Ig (Jackson Labs, Bar Harbor, ME), goat anti-rabbit lg (1:50,000), or goat anti-mouse Ig (1:50,000) were used as secondary antibodies in TBST at RT, 1 hour. Blots were visualized with ECL or West Femto from Pierce. Membranes were re-probed with GAPDH (1:5000, Sigma) as loading control. Insoluble samples were stained with Gel Code Blue as loading control.

For test [2], the system named is striatal neurons from control 2171WT. Description: Cell death (SytoX assay) in striatal neurons from control individual. It is filed as cell-based, human. The conditions noted are these: doses of 5 and 10 μM; data not shown. The method, then:
(§1) Striatal neurons from Huntington's patient GM 04198 and control 2171WT were prepared as previously described. Cells, at 24 days after induction, were incubated with G2 analog or an equivalent volume of DMSO for 14 days (drug/DMSO added with medium change every 4 days) and then cell death was determined by SytoX assay as previously described.

For a further test, the system named is PiZ mouse model of ATD. Put plainly: PiZ mouse model of ATD, oral gavage. It is filed as in vivo. The conditions noted are these: PiZ mouse. As for the experimental part: The PiZ mouse model has been described previously (Hidvegi 2010 Science 329 (5988): 229-232). For experiments involving drug administration in mice in vivo, doses of 5-50 mg/kg/day for the G2 analog were given for 3 weeks, and then liver histological and biochemical characteristics were assessed exactly as previously described (Hidvegi 2005J Biol Chem 280 (47): 39002-39015). Each experimental group contained 4-6 four- to six-month old male mice randomly chosen from littermates. G2 analogs were delivered by oral gavage. Control mice were littermates given DMSO by gavage. The outcome was determined by evaluating 1) the hepatic ATZ load by immunoblotting with anti-AT, immunostaining with PAS/D; 2) hepatic fibrosis using Sirius Red staining; 3) autophagy by immunoblotting with anti-LC3 and anti-p62, and imaging for GFP+autophagosomes; 4) monitoring blood glucose levels by glucometer and blood insulin levels by ELISA Wide Range Assay (CrystalChem). For immunostaining, liver samples were fixed in 10% Formalin, followed by staining with PAS after diastase and Sirius Red using standard techniques. Quantitative evaluation of immunostaining and histochemical staining was carried out by a member of the team that was blinded to group allocation. Blood glucose and insulin levels were quantified as previously described (Wang 2019 PLOS One 14: e0209748).
For immunoblot analysis of proteins in liver, the liver was snap frozen in liquid nitrogen and stored at −80° C. Liver was homogenized in 50 mM Tris-HCl pH 8.0, 150 mM NaCl, 2 mM KCl, 2 mM MgCl2, 0.5% Triton X-100, 0.5% deoxycholic acid containing 0.1 mM […] and Complete protease inhibitor cocktail from Roche. Total protein concentration was measured by BCA assay (Pierce) and followed by western blotting as described previously.

The test system of test [3] is HTT inclusion bodies (IBs) in HD-MSNs. Description: HTT inclusion bodies / mHTT aggregation in HD-MSNs. Format: cell-based, human. The conditions noted are these: HD-MSNs, compared to the inactive form, FIG. 13. The method, then: Adult dermal fibroblasts from symptomatic HD patients (Coriell NINDS and NIGMS Repositories: ND33947, ND30013, GM02173, GM04230, GM04198, GM02147), presymptomatic HD patients (GM04717, GM04861, GM04855, GM04831, GM04857, GM04829), and healthy controls (GM02171) were acquired from the Coriell Institute for Medical Research. The lentiviral cocktail of rtTA, pTight-9-124-BclxL, CTIP2, MYT1L, DLX1, and DLX2 was added to human fibroblasts for 16 h, then cells were washed and fed with fibroblasts media containing 1 μg/mL doxycycline (DOX). Briefly, transduced fibroblasts were maintained in fibroblasts media for two days with doxycycline before selection with Puromycin ([…]) on day 3, then were plated onto poly-ornithine, fibronectin, and laminin-coated coverslips on day 5. Cells were subsequently maintained in NeurobasalA (Gibco) media containing B-27 plus supplement and GlutaMAX supplemented with valproic acid (1 mM), dibutyryl cAMP ([…]), BDNF (10 ng/ml), NT-3 (10 ng/ml), and RA ([…]) until day 13. […]
Reprogramming cells were fixed with 4% paraformaldehyde (Electron Microscopy Sciences, #15710) for 20 min at room temperature (RT), and then permeabilized with 0.2% Triton X-100 for 10 min at RT. […] Images were captured using a Leica SP5X white light laser confocal system with Leica Application Suite (LAS) Advanced Fluorescence 2.7.3.9723.

Test [4] has as its system striatal neurons from Huntington's patient GM 04198. Put plainly: Cell death (SytoX assay) in striatal neurons from Huntington's patient. Format: cell-based, human. The method, then: as §1
Test [5] concerns C. elegans model of ATD (sGFP::ATZ). Put plainly: Quantification of ATZ accumulation in C. elegans model of ATD (Z worm). It is filed as in vivo. Conditions: 24 h incubation, FIG. 9. As for the experimental part: The C. elegans strain VK1882 (vkls1882 [nhx-2p::sGFP::ATZ; myo-2p::mCherry) was routinely cultured at 20° C. on nematode growth medium plates seeded with E. coli strain OP50. Quantitative analysis of ATZ accumulation was carried out by detection of fluorescence using the Thermofisher CellInsight CX-7 high content imager as previously described. L4 stage animals were placed into wells of 384-well plates (30 per well) containing G2 analogs or an equivalent volume of DMSO. Following incubation at 20° C. for 24 hours, sodium azide was added to a final concentration of […] to anesthetize the animals and then each well was imaged on the CX-7 high content imager for quantification.

Entries after “also recorded” stand apart in the source; their conditions may differ.

As to `Cn1ccc2cc(-c3ccn[nH]3)ccc2c1=O` [G2-65, 2-methyl-6-(1H-pyrazol-5-yl)isoquinolin-1(2H)-one], the result in test [1] was Inactive. Still for that read-out and setting: in the case of `Cn1ccc2cc(-c3ccccc3)ccc2c1=O` [G2-41, 2-methyl-6-phenylisoquinolin-1(2H)-one] it was “Active”; in that of `CNC(=O)c1cc(Cl)ccc1OCc1ccccc1` [G2-12-3, 2-(benzyloxy)-5-chloro-N-methylbenzamide], “Inactive”. Take `CNC(=O)c1cc(Cl)ccc1OC1CC1` [G2-12, 5-chloro-2-cyclopropoxy-N-methylbenzamide]: in test [1], the outcome was Active. The same measure, in the same setting: in the case of `CNC(=O)c1cc(Cl)ccc1OC` [G2-3, 5-chloro-2-methoxy-N-methylbenzamide] it was “Active”. For `COc1ccc(Cl)cc1C(=O)NCC(C)C` [G2-14, 5-chloro-N-isobutyl-2-methoxybenzamide], in test [1], the result was Inactive.

Turning to `COc1ccc(Cl)cc1C(=O)NCCCCO` [G2-15, 5-chloro-N-(4-hydroxybutyl)-2-methoxybenzamide], the result in test [1] was Inactive. Turning to `Cn1ccc2cc(Cl)ccc2c1=O` [G2-19, 6-chloro-2-methylisoquinolin-1(2H)-one], the “neuronal death (percent SYTOX positive cells)” value in test [2] was “no effect”; in test [4] (second experiment, FIG. 12, doses of 5 and 10 μM), “reduced neuronal death”. In addition, in the test with PiZ mouse model of ATD, the “hepatic ATZ load” value is reported as “reduced hepatic ATZ load”. Moreover, the insulin secretion entry in the test with PiZ mouse model of ATD was “without affecting insulin secretion”. The “hepatic / liver fibrosis (Sirius Red staining)” value in the test with PiZ mouse model of ATD (G2-19: 3 weeks of treatment vs placebo) is “marked and statistically significant decrease”. The “HTT inclusion body (IB)” value in test [3] is listed as “lowers HTT inclusion body (IB)”. Further, in test [4] (FIG. 11, dose-dependent between 0.5 and 10 μM, 14 days), the “cell death (percent SYTOX positive cells)” value was “reduces cell death”. Also, in test [1] (48 hrs incubation, immunoblot, FIG. 8 / FIG. 14), the “effect on cellular ATZ levels” value is reported as “reduces ATZ levels in a dose-dependent manner; also recorded: more potent than G2-3”. For the same compound, the Activity result in test [1] is listed as “Active (Highly Active)”. Also, the “reduction of ATZ levels” value in test [1] (dose of 5 μM, 48 hrs, FIG. 8) was found to be 60%. In test [5] (GFP/RFP fluorescence), the “effect on ATZ levels in intestinal cells of the ATZ worm” value is given as “dose-dependent decrease in ATZ levels; also recorded: not as potent as positive control prochlorperazine (PCP)”. For the same compound, the “reduction in ATZ levels (fluorescence)” value in test [5] (at 40 µM) was around 50%. As for `CN1CCNC(=O)c2cc(Cl)ccc21` [G2-11, 7-chloro-1-methyl-1,2,3,4-tetrahydro-5H-benzo[e][1,4]diazepin-5-one], the result in test [1] was Inactive. By IC50 is commonly meant the concentration at which inhibition is half-maximal. A lower IC50 goes with inhibition by little substance. Take `O=c1ccc2c(Cl)cc(N3CCCCC3)cc2[nH]1` [G2-235, 5-chloro-7-(piperidin-1-yl)quinolin-2(1H)-one]: in test [1], the result was Active and the IC50 was 1 to 10 µM. As for `Cn1ccc2cc(-c3ncccn3)ccc2c1=O` [G2-59, 2-methyl-6-(pyrimidin-2-yl)isoquinolin-1(2H)-one], the result in test [1] was Inactive. Same read-out and setting: with `Cn1ccc2cc(S(N)(=O)=O)ccc2c1=O` [G2-67, 2-methyl-1-oxo-1,2-dihydroisoquinoline-6-sulfonamide] the entry was “Inactive”; with `CCCCc1ccc2c(=O)n(C)ccc2c1` [G2-60, 6-butyl-2-methylisoquinolin-1(2H)-one], “Inactive”; with `CCn1ccc2cc(Cl)ccc2c1=O` [G2-52, 6-chloro-2-ethylisoquinolin-1(2H)-one], “Inactive”. Regarding `O=c1ccc2c(Cl)cc(-c3ccccc3)cc2[nH]1` [G2-233, 5-chloro-7-phenylquinolin-2(1H)-one], in test [1], the result was Active and the IC50 lay in the range of 1 to 10 µM.

Consider `Cn1ccc2c(Cl)cccc2c1=O` [G2-22, 5-chloro-2-methylisoquinolin-1(2H)-one], for which the outcome in test [1] was Active. Same read-out and setting: in the case of `COc1ccc2c(=O)n(C)ccc2c1` [G2-30, 6-methoxy-2-methylisoquinolin-1(2H)-one] it was “Active”; in that of `CN(c1ccccc1)c1ccc2c(=O)n(C)ccc2c1` [G2-48, 2-methyl-6-(methyl(phenyl)amino)isoquinolin-1(2H)-one], “Active”; in that of `Cn1ccc2ccc(Cl)cc2c1=O` [G2-23, 7-chloro-2-methylisoquinolin-1(2H)-one], “Inactive”.

On to `CNC(=O)c1cc(F)ccc1OC` [G2-4, 5-fluoro-2-methoxy-N-methylbenzamide], for which the result in test [1] was Inactive. The same measure, in the same setting: with `Cn1ccc2ccccc2c1=O` [G2-34, 2-methylisoquinolin-1(2H)-one] the entry was “Inactive”; with `CNC(=O)c1cc(Cl)ccc1Oc1ccc(Cl)cc1` [G2-16, 5-chloro-2-(4-chlorophenoxy)-N-methylbenzamide], “Inactive”.
